pIC50: −log10 of the molar value. Square brackets hold non-standard residues; d marks the D form. Peptide text beside a SMILES is read from it. * marks the point of attachment. Hydrocinnamoyl = O=C(CCc1ccccc1)*; dCit = NC(=O)NCCC[C@@H](N)C(=O)O; Boc = CC(C)(C)OC(=O)*
What was measured:
[1] = system: rabbit venous thrombosis model; assay: Rabbit deep vein (venous) thrombosis model; format: in vivo; settings: for Hct: mean (SD on next line); for PLT / RBC / WBC: mean±SD
Excerpt: Rabbits were anesthetized with I.M. injections of Ketamine, Xylazine, and Acepromazine cocktail.

[2] = Cuticle bleeding time model in rabbits; format: in vivo, rabbit; settings: 1500 μg/kg+14.85 μg/kg/min, bleeding time experiments
Method: In an ancillary study, a Cuticle Bleeding Time model was used to evaluate the effect of test compounds on bleeding time (BT) measurements in rabbits. The standardized protocol involved anesthesia and catheterization of rabbits as previously described in this Example 43. To measure BT, a toe nail was cut 5 mm from the base of the cuticle with a canine nail trimming device. Time until cessation of bleeding was recorded by wicking the blood on to BT blotting paper in 30 second intervals. Test compound was administered as a bolus followed by infusion regimen. Two BT measurements were obtained prior to administration of test compound and three BT measurements accomplished serially after initiation of steady state infusion of test compound. BT measurements were allowed to continue for up to 30 minutes at which time it was stopped with application of silver nitrate. Blood samples were obtained just prior to all BT measurements and processed for measurement of hematological and coagulation parameters.

factor Xa = factor Xa (Homo sapiens, UniProt P00742); assay: Factor Xa amidolytic assay (chromogenic substrate S2765); format: biochemical; settings: read-out: Inhibitory Activity (IC50) Factor Xa
Sequence of factor Xa (P00742 235-488 limits assumed): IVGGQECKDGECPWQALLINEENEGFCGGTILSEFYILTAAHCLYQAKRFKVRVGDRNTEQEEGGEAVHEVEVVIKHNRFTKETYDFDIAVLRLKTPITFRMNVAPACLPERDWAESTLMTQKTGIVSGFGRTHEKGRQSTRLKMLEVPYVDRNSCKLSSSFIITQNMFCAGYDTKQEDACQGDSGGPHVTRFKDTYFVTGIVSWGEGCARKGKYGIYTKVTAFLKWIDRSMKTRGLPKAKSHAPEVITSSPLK
Sequence of factor Xa (P00742 41-179 limits assumed): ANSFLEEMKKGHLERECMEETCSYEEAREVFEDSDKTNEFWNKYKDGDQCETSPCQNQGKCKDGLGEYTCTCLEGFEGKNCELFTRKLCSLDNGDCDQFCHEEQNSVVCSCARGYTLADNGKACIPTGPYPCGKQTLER

prothrombinase complex = prothrombinase complex (Homo sapiens, UniProt P00742); assay: Prothrombinase inhibition assay, plasma free system (thrombin generation, Chromozym TH); format: biochemical; settings: read-out: Inhibitory Activity (IC50) Prothrombinase
Sequence of prothrombinase complex (P00742 235-488 limits assumed): as the sequence (P00742 235-488 limits assumed) above
Sequence of prothrombinase complex (P00742 41-179 limits assumed): as the sequence (P00742 41-179 limits assumed) above
Sequence of prothrombinase complex (P12259 29-737 partner limits assumed): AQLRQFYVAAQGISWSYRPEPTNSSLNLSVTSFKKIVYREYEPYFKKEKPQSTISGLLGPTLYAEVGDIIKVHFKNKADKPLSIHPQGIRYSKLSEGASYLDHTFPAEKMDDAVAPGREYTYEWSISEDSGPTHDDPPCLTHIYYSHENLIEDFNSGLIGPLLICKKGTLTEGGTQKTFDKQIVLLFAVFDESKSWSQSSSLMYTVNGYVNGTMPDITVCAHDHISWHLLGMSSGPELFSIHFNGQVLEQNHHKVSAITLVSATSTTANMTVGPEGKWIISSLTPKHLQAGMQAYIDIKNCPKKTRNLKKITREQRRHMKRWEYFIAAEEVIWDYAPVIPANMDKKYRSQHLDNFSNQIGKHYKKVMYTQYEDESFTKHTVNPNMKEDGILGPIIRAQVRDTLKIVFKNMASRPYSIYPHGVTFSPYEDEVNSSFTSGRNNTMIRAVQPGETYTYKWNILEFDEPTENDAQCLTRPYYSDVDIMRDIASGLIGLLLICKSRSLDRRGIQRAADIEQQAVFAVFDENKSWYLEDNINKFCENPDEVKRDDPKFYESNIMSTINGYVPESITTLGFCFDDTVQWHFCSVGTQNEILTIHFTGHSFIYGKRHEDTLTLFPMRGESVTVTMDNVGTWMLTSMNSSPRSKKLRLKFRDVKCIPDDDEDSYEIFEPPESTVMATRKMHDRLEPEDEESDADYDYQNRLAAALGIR
Sequence of prothrombinase complex (P12259 1574-2224 partner limits assumed): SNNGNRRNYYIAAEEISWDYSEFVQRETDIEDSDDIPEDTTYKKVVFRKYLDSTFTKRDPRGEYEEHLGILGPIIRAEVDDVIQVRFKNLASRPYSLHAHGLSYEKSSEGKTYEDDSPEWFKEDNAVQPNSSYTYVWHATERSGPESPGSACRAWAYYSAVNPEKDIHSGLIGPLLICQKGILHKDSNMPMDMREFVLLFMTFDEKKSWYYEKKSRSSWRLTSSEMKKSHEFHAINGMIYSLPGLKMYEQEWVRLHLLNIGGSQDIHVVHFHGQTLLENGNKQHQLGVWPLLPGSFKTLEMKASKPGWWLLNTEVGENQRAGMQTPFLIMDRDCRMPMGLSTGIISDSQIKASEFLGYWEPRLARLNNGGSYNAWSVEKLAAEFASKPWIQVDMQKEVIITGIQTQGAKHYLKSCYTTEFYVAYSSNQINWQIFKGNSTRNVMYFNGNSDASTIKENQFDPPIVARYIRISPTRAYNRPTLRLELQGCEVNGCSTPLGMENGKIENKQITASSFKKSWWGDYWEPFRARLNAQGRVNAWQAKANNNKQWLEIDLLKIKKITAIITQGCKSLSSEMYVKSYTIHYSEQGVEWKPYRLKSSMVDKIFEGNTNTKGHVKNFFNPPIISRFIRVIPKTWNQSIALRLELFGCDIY

## CC(C)(C)OC(=O)N[C@H](CCCNC(=N)N)C(=O)NCC(=O)N[C@H](C=O)CCCNC(=N)N [Boc-D-Arg-Gly-Arg-H] (Boc-[dR]-Gly-Arg-aldehyde)
[1]; 200 + 1.98 μg/kg + μg/kg/min
  Hct: 36.9%
  PLT: 393 ± 84 × 10^3 /μL
  RBC: 5.69 ± 0.14 × 10^6 /μL
  WBC: 4.45 ± 0.97 × 10^3 /μL
[1]; 600 + 5.94 μg/kg + μg/kg/min
  Hct: 35.3%
  PLT: 442 ± 81 × 10^3 /μL
  RBC: 5.74 ± 0.48 × 10^6 /μL
  WBC: 3.87 ± 0.65 × 10^3 /μL
[1]; 1000 + 9.90 μg/kg + μg/kg/min
  Hct: 35.5%
  PLT: 375 ± 73 × 10^3 /μL
  RBC: 5.71 ± 0.28 × 10^6 /μL
  WBC: 5.09 ± 1.61 × 10^3 /μL
[1]; 1500 + 14.85 μg/kg + μg/kg/min
  Hct: 36.0%
  PLT: 433 ± 22 × 10^3 /μL
  RBC: 5.80 ± 0.50 × 10^6 /μL
  WBC: 4.82 ± 1.01 × 10^3 /μL
[1]; all dose regimens
  effects on hematological parameters as compared to saline controls: no significant effects
[1]; bolus + infusion, dose range
  antithrombotic efficacy in the rabbit venous thrombosis model: demonstrated antithrombotic efficacy at the higher doses evaluated
[2]
  average increase in PT: 1.07 fold
  average increase in aPTT: 1.61 fold

## CC(C)(C)OC(=O)N[C@H](CCCNC(N)=O)C(=O)NCC(=O)N[C@H](C=O)CCCNC(=N)N [Boc-D-Cit-Gly-Arg-H] (Boc-[dCit]-Gly-Arg-aldehyde)
Factor Xa
  pIC50: 5.52

## CN(C)C(=NCCCC[C@@H](NC(=O)OC(C)(C)C)C(=O)NCC(=O)N[C@H](C=O)CCCNC(=N)N)N(C)C [Boc-D-Har((CH3)4)-Gly-Arg-H]
Prothrombinase complex
  pIC50: 4.36
Factor Xa
  pIC50: 5.30

## N=C(N)NCCC[C@@H](C=O)NC(=O)CNC(=O)[C@@H](CCCNC(=N)N)NC(=O)C(=O)O [HOOCCO-D-Arg-Gly-Arg-H, Oxaloyl-D-Arg-Gly-Arg-H]
Prothrombinase complex
  pIC50: 7.20

## N=C(N)NCCC[C@@H](C=O)NC(=O)CNC(=O)[C@@H](CCCNC(=N)N)NC(=O)CCc1ccccc1 [PhCH2 CH2 CO-D-Arg-Gly-Arg-H, 3-Phenylpropanoyl-D-Arg-Gly-Arg-H] (Hydrocinnamoyl-[dR]-Gly-Arg-aldehyde)
Prothrombinase complex
  pIC50: 5.77
